Measured values taken from PMC12354831 (Cell Death Discovery, 2025).
Values joined by “and” are separate entries in the source; they are usually repeats but may differ in a detail not shown here. Equal entries are not always repeated. Where two headings read alike, the source gives them in different places.

How the values were obtained:
U87-MG cells = test: CCK-8 IC50 determination in U87-MG cells with or without GLUT3 KD; type: cell-based, human; details: GLUT3 KD vs control, CCK-8, 24 h drug treatment
Method: (§1) The GBM cell line was seeded into a 96-well plate at a density of 5 × 10^3 cells per well and incubated at 37 °C in a humidified atmosphere containing 5% CO2 overnight. […] Following 24 h of drug treatment, 10 µL of CCK-8 reagent was added to each well, and the cells were incubated for an additional 1 h at 37 °C. The absorbance was then measured at 450 nm using a microplate reader.
(§2) In this study, the experimental groups were designated as Group A (cells treated with temozolomide (TMZ) or capecitabine (CAPE)), the control group as Group B (cells treated with DMSO), and the blank control group as Group C ([…]). The cell viability rate was calculated using the formula: (A-C)/(B-C) × 100%, where A, B, and C represent the absorbance values of Group A, Group B, and Group C, respectively.

U251-MG cells [1] = test: CCK-8 IC50 determination in U251-MG cells with or without GLUT3 OE; type: cell-based, human; details: GLUT3 OE vs control, CCK-8, 24 h drug treatment
Method: as §1, §2

GLUT3 [2] = molecular target: T1, GLUT3 (Homo sapiens, UniProt P11169); test: Cellular uptake of TMZ and CAPE by LC-MS/MS, GLUT3 KD U343-MG cells; type: in vitro ADME; details: for extracellular drug level higher than controls: GLUT3-KD U343-MG cells, remaining extracellular drug after uptake; for reduction of drug uptake by GLUT3 KD: U343-MG cells, 200 μM drug, 37 °C, 15 min, intracellular level vs control
T1 construct: expressed in transfected cells
T1 sequence (P11169 1-496): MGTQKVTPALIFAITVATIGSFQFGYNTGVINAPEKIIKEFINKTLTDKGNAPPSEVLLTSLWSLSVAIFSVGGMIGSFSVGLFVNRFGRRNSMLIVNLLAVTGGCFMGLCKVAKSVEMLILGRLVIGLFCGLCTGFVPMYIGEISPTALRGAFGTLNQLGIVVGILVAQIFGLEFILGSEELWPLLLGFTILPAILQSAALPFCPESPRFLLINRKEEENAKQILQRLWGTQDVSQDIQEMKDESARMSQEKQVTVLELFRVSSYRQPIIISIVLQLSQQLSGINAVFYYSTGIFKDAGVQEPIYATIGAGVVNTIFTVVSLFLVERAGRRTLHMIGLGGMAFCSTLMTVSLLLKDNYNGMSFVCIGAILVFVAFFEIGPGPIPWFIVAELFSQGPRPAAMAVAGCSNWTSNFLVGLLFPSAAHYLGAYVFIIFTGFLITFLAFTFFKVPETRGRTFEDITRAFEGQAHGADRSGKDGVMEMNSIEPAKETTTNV
Method: (§3) A total of 6 × 10^6 cells were seeded into each well of a 6 cm Petri dish and cultured at 37 °C in a humidified atmosphere containing 5% CO2 for 8 h. The cells were then washed twice with PBS (137 mM NaCl, 2.7 mM KCl, 10 mM Na2HPO4, 1.8 mM KH2PO4, pH 7.4) and incubated in transport buffer (140 mM NaCl, 5 mM KCl, 2 mM MgCl2, 2 mM CaCl2, 30 mM Tris-HCl, pH 7.4) for 15 min at 37 °C. […] Cell supernatants were collected and stored at 4 °C for subsequent extraction. The harvested cells were washed three times with PBS and extracted with 500 µL of 80% methanol for 30 min at −80 °C. The cell lysate was then centrifuged at 14,000 × g for 5 min at 4 °C, followed by 2 min of sonication. The supernatant was transferred to a new centrifuge tube. For LC-MS/MS analysis, the cell supernatants and cell lysates were diluted at a specific ratio. A total of 100 µL of each sample was mixed with 100 µL of acetonitrile (or standard reagent) and 300 µL of internal standard solution (^2H3-TMZ 100 ng/mL and ^2H11-CAPE 20 ng/mL dissolved in acetonitrile). […] Quality control (QC) samples were prepared and analyzed alongside the experimental samples to monitor the stability and repeatability of the instrument. QC samples were inserted regularly and analyzed every 6–12 samples. Each experiment was repeated 5–6 times.
(§4) LC-MS/MS analyses were performed using a high-performance liquid chromatography (HPLC) system (Shimadzu, LC-20A) coupled to a […] (ABSciex, API4000 QTRAP). The samples were separated on a 2.1 × 100 mm ACQUITY Premier BEH C18 1.7 µm VanGuard™ FIT column (Waters, Ireland). The mobile phases consisted of: Mobile phase A (0.1% formic acid and 2.5 mM ammonium acetate in water) and Mobile phase B (0.1% formic acid and 2.5 mM ammonium acetate in acetonitrile). Gradient elution was employed, with the flow rates and gradient conditions detailed in Table S2.
(§5) The mass spectrometry conditions were as follows: Ion source: electrospray ionization (ESI); Detection mode: positive ion mode; Scanning method: multiple reaction monitoring (MRM); Spray voltage (IS): 5500 V; Ion source temperature (TEM): 555 °C; Gas curtain pressure (CUR): 25 psi; Collision activation dissociation (CAD): MEDIUM; Nebulizer gas pressure (GS1): 55 psi; Auxiliary gas pressure (GS2): 55 psi.

GLUT3 [3] = molecular target: T1, GLUT3; test: Cellular uptake of TMZ and CAPE by LC-MS/MS, GLUT3 OE U251-MG cells; type: in vitro ADME; details: for decrease of extracellular drug concentration: GLUT3 OE U251-MG cells, remaining extracellular drug after uptake; for increase of drug uptake by GLUT3 OE: U251-MG cells, 200 μM drug, 37 °C, 15 min, intracellular level vs control
Method: as §3, §4, §5

GLUT3 [4] = molecular target: T1, GLUT3; test: 2-NBDG glucose uptake competition assay in GLUT3-OE vs vector control U251-MG cells; type: cell-based; details: for reduction in 2-NBDG uptake: GLUT3 OE U251-MG cells, 100 μM 2-NBDG
Method: GBM cells were seeded into 96-well plates at a density of 4 × 10^4 cells per well and allowed to adhere for 24 h. After 6–12 h, the culture medium (containing 10% fetal bovine serum, FBS) was removed, and the cells were incubated in 100 µL of glucose-free DMEM medium for 1 h at 37 °C in a humidified atmosphere containing 5% CO2. The glucose-free medium was then replaced with 100 µL of DMEM containing 100 µM 2-NBDG, and the cells were incubated for an additional 30 min at 37 °C. Following incubation, the cells were washed three times with cold PBS to remove unincorporated 2-NBDG. The fluorescence intensity was immediately measured using a Synergy™ H1 automatic microplate reader with excitation and emission wavelengths set at 485 nm and 528 nm, respectively.
After 30 min of incubation at 37 °C, the cells were washed three times with cold PBS, and the fluorescence intensity was measured as described above.

GLUT3 [5] = molecular target: T1, GLUT3; test: Microscale thermophoresis (MST) binding assay, GLUT3-GFP in cell lysates
Method: Data from three independent measurements were analyzed using MO. Affinity Analysis software (version 2.1.3, NanoTemper Technologies).

GLUT3 mutants = test: TMZ/CAPE uptake by U251-MG cells stably expressing GLUT3 mutants vs WT GLUT3 (LC-MS/MS); type: in vitro ADME, human; details: U251-MG cells expressing GLUT3 mutants with reduced affinity vs WT GLUT3
Method: as §3, with “times. […]” for “times.”

U251-MG cells [6] = test: CCK-8 IC50 in U251-MG cells expressing GLUT3 mutants vs WT; type: cell-based, human; details: GLUT3 Q159A vs GLUT3 WT
Method: as §1, §2

[7] = across the tested GBM cell lines (U343-MG, U251-MG), read-out: Kd values

## CCCCCOC(=O)Nc1nc(=O)n([C@@H]2O[C@H](C)[C@@H](O)[C@H]2O)cc1F [CAPE, capecitabine]
U87-MG cells
  fold increase of IC50 on GLUT3 knockdown: 56.5 fold
U251-MG cells [1]
  reduction of IC50 in GLUT3 overexpressing cells compared to control cells: 94.4%
GLUT3 [2]
  extracellular drug level higher than controls: 12%
  reduction of drug uptake by GLUT3 KD: 65.5%
GLUT3 [3]
  decrease of extracellular drug concentration: 5.4%
  increase of drug uptake by GLUT3 OE: ~ 70%
GLUT3 [4]; 1 μM drug
  reduction in 2-NBDG uptake: 39.4%
GLUT3 [4]; 10 μM drug
  reduction in 2-NBDG uptake: 51.5%
GLUT3 [4]; 100 μM drug
  reduction in 2-NBDG uptake: 69.3%
GLUT3 [5]; U251-MG lysate, GLUT3-GFP, pH 6.8, read-out: Kd
  Kd: 1800 ± 1100 nM
GLUT3 [5]; [7]
  Kd: 1000 to 3000 nM and 900 to 3500 nM
GLUT3 mutants
  reduction in drug uptake: 75–95%
U251-MG cells [6]
  fold increase in IC50: 3.6 fold

## Cn1nnc2c(C(N)=O)ncn2c1=O [TMZ]
U87-MG cells
  fold increase of IC50 on GLUT3 knockdown: 10.6 fold
U251-MG cells [1]
  reduction of IC50 in GLUT3 overexpressing cells compared to control cells: 97.7%
GLUT3 [2]
  extracellular drug level higher than controls: 3%
  reduction of drug uptake by GLUT3 KD: 54.3%
GLUT3 [3]
  decrease of extracellular drug concentration: 7.7%
  increase of drug uptake by GLUT3 OE: ~ 70%
GLUT3 [4]; 1 μM drug
  reduction in 2-NBDG uptake: 36.8%
GLUT3 [4]; 10 μM drug
  reduction in 2-NBDG uptake: 47.2%
GLUT3 [4]; 100 μM drug
  reduction in 2-NBDG uptake: 70.1%
GLUT3 [4]; vector control U251-MG cells, until concentration reached 100 μM
  effect on glucose (2-NBDG) uptake in control cells: minimally affected
GLUT3 [5]; [7]
  Kd: 300 to 700 nM
GLUT3 mutants
  reduction in drug uptake: 60–70%
U251-MG cells [6]
  fold increase in IC50: 1.3 fold
